Measured values taken from ChEMBL document CHEMBL1147203, “Phosph(on)ate as a zinc-binding group in metalloenzyme inhibitors: X-ray crystal structure of the antiviral drug foscarnet complexed to human carbonic anhydrase I” (Bioorg Med Chem Lett, 2007).

Experiments:
Carbonic anhydrase 14 = Carbonic anhydrase 14 (Homo sapiens, UniProt Q9ULX7); assay: Inhibition of human recombinant CA14 by CO2 hydration assay
Carbonic anhydrase 12 = Carbonic anhydrase 12 (Homo sapiens, UniProt O43570); assay: Inhibition of human recombinant CA12 by CO2 hydration assay
Sequence of Carbonic anhydrase 12 (O43570 whole entry): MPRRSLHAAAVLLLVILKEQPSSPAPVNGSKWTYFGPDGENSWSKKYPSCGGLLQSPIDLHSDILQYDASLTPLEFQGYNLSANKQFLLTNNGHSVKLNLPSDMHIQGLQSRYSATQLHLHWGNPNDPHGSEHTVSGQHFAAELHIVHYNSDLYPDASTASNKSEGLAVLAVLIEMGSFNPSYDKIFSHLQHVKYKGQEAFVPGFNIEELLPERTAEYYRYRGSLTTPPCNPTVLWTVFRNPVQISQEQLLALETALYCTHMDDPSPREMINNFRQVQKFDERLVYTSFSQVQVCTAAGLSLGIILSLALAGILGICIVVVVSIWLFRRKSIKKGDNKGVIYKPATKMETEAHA

Carbonic anhydrase 13 = Carbonic anhydrase 13 (Mus musculus, UniProt Q9D6N1); assay: Inhibition of mouse recombinant CA13 by CO2 hydration assay
Sequence of Carbonic anhydrase 13 (Q9D6N1 whole entry): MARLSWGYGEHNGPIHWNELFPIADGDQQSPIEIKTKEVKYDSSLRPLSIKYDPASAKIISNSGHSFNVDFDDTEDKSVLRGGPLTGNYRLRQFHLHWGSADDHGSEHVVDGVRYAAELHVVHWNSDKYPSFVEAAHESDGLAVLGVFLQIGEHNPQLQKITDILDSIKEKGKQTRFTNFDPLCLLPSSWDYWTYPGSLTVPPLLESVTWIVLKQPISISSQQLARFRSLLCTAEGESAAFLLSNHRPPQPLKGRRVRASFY

Carbonic anhydrase 7 = Carbonic anhydrase 7 (Homo sapiens, UniProt P43166); assay: Inhibition of human recombinant CA7 by CO2 hydration assay
Sequence of Carbonic anhydrase 7 (P43166 whole entry): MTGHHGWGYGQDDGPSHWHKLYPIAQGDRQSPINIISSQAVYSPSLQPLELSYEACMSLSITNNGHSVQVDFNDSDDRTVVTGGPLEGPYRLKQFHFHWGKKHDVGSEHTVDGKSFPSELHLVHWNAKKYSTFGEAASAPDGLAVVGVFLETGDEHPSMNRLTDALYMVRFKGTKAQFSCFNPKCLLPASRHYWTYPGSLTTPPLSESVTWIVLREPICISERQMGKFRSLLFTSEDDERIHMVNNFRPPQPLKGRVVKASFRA

[1] = target: Carbonic anhydrase 5B, mitochondrial (Homo sapiens, UniProt Q9Y2D0); assay: Inhibition of human recombinant CA5B by CO2 hydration assay
Sequence of Carbonic anhydrase 5B, mitochondrial (Q9Y2D0 whole entry): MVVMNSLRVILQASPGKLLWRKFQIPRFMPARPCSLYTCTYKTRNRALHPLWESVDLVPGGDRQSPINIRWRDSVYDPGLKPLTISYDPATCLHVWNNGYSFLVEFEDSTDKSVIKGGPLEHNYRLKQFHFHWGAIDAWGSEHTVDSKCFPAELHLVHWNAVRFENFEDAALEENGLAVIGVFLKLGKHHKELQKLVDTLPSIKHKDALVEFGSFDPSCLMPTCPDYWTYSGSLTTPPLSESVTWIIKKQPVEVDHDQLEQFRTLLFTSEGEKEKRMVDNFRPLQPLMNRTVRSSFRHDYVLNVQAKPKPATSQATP

Carbonic anhydrase 6 = Carbonic anhydrase 6 (Homo sapiens, UniProt P23280); assay: Inhibition of human recombinant CA6 by CO2 hydration assay
Sequence of Carbonic anhydrase 6 (P23280 whole entry): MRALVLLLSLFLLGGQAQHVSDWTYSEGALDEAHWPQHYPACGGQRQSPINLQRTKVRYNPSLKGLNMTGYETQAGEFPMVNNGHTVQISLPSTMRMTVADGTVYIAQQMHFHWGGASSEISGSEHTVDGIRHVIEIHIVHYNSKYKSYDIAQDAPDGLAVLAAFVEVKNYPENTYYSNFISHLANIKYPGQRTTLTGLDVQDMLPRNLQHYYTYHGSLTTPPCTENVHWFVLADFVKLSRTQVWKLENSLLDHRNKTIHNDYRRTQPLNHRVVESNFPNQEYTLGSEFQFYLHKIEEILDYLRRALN

Sequence of Carbonic anhydrase 14 (Q9ULX7 whole entry): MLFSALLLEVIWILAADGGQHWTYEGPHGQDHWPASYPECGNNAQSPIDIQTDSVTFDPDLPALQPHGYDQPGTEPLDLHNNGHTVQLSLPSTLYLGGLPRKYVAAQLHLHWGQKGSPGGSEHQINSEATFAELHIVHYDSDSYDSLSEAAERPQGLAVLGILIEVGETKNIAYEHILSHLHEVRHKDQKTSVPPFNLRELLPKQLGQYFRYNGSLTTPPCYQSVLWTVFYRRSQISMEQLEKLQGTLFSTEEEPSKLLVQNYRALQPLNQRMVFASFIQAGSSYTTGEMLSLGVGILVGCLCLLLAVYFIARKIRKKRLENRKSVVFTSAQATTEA

Q: `O=C(O)P(=O)(O)O` [FOSCARNET SODIUM] was tested. Which Ki (Carbonic anhydrase 14) did it give?
A: The Ki was 3600 µM.

Q: And the Ki (Carbonic anhydrase 12)?
A: The Ki was 1290 µM.

Q: What about the Ki (Carbonic anhydrase 13) of the same molecule?
A: Its Ki is 870 µM.

Q: What about the Ki (Carbonic anhydrase 7) of the same molecule?
A: The Ki was 560 µM.

Q: And the Ki [1]?
A: The Ki was 11800 µM.

Q: And the Ki (Carbonic anhydrase 6)?
A: The Ki was 1810 µM.
